Marks after values point to notes of the source that are not given here.
Columns and labels:
[1] = Phase I dose escalation: dose-limiting toxicity, MTD and adverse events; conditions: human, in vivo
[2] = test system: refractory pediatric central nervous system tumors; experiment: Tumor response by neuro-imaging; type: in vivo, human
[3] = Plasma pharmacokinetics of SU5416 and its metabolites; type: in vivo, human; conditions: for half-life: human, plasma, iv
[4] = adults, interval between successive doses less than 7 days; ref [20]; cited from earlier work
[5] = ref [11]; cited from earlier work
CYP3A4 = conditions: ref [33], [39]; cited from earlier work
[6] = adults with solid tumors, ref [16], [18], [23]–[25], [30], cited from earlier work
[7] = Stratum I (no EIACD), 110 mg/m^2 IV, week 1, 13 patients, mean ± SD
[8] = Stratum I (no EIACD), 110 mg/m^2 IV, week 6, 10 patients, mean ± SD
[9] = Stratum I (no EIACD), 145 mg/m^2 IV, week 1, 6 patients, mean ± SD
[10] = Stratum I (no EIACD), 145 mg/m^2 IV, week 6, 3 patients, mean ± SD
[11] = Stratum I (no EIACD), all doses IV, week 6, 13 patients, mean ± SD
[12] = Stratum II (EIACD), 35 mg/m^2 IV, week 1, 1 patient
[13] = Stratum II (EIACD), 48 mg/m^2 IV, week 1, 2 patients, mean ± SD
[14] = Stratum II (EIACD), 65 mg/m^2 IV, week 1, 6 patients, mean ± SD
[15] = Stratum II (EIACD), all doses IV, week 1, 9 patients, mean ± SD
[16] = Stratum I (no EIACD), SU5416 110 mg/m^2 IV, week 1, 13 patients, mean ± SD
[17] = Stratum I (no EIACD), SU5416 110 mg/m^2 IV, week 6, 10 patients, mean ± SD
[18] = Stratum I (no EIACD), SU5416 145 mg/m^2 IV, week 1, 6 patients, mean ± SD
[19] = Stratum I (no EIACD), SU5416 145 mg/m^2 IV, week 6, 3 patients, mean ± SD
[20] = Stratum I (no EIACD), all SU5416 doses IV, week 1, 19 patients, mean ± SD
[21] = Stratum I (no EIACD), all SU5416 doses IV, week 6, 13 patients, mean ± SD
[22] = Stratum II (EIACD), SU5416 35 mg/m^2 IV, week 1, 1 patient
[23] = Stratum II (EIACD), SU5416 48 mg/m^2 IV, week 1, 2 patients, mean ± SD
[24] = Stratum II (EIACD), SU5416 65 mg/m^2 IV, week 1, 6 patients, mean ± SD
[25] = Stratum II (EIACD), all SU5416 doses IV, week 1, 9 patients, mean ± SD

## Cc1cc(C)c(/C=C2\C(=O)Nc3ccccc32)[nH]1 [SU5416, semaxanib]
[1]
  most serious drug-related toxicities: grade 3 liver enzyme abnormalities, arthralgia and hallucinations
[2]; Pt 1, Glioblastoma Multiforme, Spinal Cord
  Stable Disease Duration (months): 5.3 months
[2]; Pt 1, Glioblastoma Multiforme, tumor size, 1.4 months from treatment
  Change from baseline (%): 0%
[2]; Pt 3, Choroid Plexus Carcinoma, Cerebrum
  Stable Disease Duration (months): 14.3 months
[2]; Pt 8, Glioblastoma Multiforme, FLAIR, 2.7 months from treatment, baseline 32.7
  Tumor size: 35.5 cm^3
[2]; Pt 8, Glioblastoma Multiforme, FLAIR, 8.1 months from treatment, baseline 32.7
  Tumor size: 29.1 cm^3
[2]; Pt 8, Glioblastoma Multiforme, FLAIR, 9.7 months from treatment, baseline 32.7
  Tumor size: 23.9 cm^3
[2]; Pt 8, Glioblastoma Multiforme, FLAIR, 11.1 months from treatment, baseline 32.7
  Tumor size: 30.5 cm^3
[2]; Pt 8, Glioblastoma Multiforme, FLAIR, 15.9 months from treatment, baseline 32.7
  Tumor size: 28.9 cm^3
[2]; Pt 8, Glioblastoma Multiforme, Parietal lobe
  Stable Disease Duration (months): 15.9 months
[2]; Pt 19, Astrocytoma, Anaplastic, Frontal lobe
  Stable Disease Duration (months): 10.6 months
[2]; Pt 26, Astrocytoma, NOS, Enhancement, 2.6 months from treatment, baseline 28.1
  Tumor size: 31.9 cm^2
[2]; Pt 26, Astrocytoma, NOS, Enhancement, 4.4 months from treatment, baseline 28.1
  Tumor size: 34.7 cm^2
[2]; Pt 26, Astrocytoma, NOS, Enhancement, 5.9 months from treatment, baseline 28.1
  Tumor size: 34.7 cm^2
[2]; Pt 26, Astrocytoma, NOS, Supratentorial
  Stable Disease Duration (months): 5.9 months
[2]; Stratum I, 16 evaluable
  Radiographic response after course 1: CR or PR (number of patients): 0
  Radiographic response after course 1: PD (number of patients): 10
  Radiographic response after course 1: PD (percent of evaluable patients): 63%
  Radiographic response after course 1: SD (number of patients): 6
  Radiographic response after course 1: SD (percent of evaluable patients): 38%
[2]; Stratum I, patients evaluable for response
  patients with sustained (prolonged) stable disease of possible clinical benefit: 4 of 16
[2]; Stratum II, 6 evaluable
  Radiographic response after course 1: CR or PR (number of patients): 0
  Radiographic response after course 1: PD (number of patients): 5
  Radiographic response after course 1: PD (percent of evaluable patients): 83%
  Radiographic response after course 1: SD (number of patients): 1
  Radiographic response after course 1: SD (percent of evaluable patients): 17%
[2]; either stratum
  objective responses: No objectives responses
[3]; [7]
  CL (total body clearance): 28.7 ± 12.8 ^a liter/h/m^2
  Vz (apparent volume of distribution): 43.3 ± 20.3 liter/m^2
[3]; [8]
  CL (total body clearance): 38.0 ± 28.7 liter/h/m^2
  Vz (apparent volume of distribution): 65.5 ± 26.7 liter/m^2
[3]; [9]
  CL (total body clearance): 21.3 ± 11.5 liter/h/m^2
  Vz (apparent volume of distribution): 39.1 ± 24.8 liter/m^2
[3]; [10]
  CL (total body clearance): 26.1 ± 17.1 liter/h/m^2
  Vz (apparent volume of distribution): 37.2 ± 33.5 liter/m^2
[3]; [11]
  CL (total body clearance): 34.9 ± 24.9 liter/h/m^2
  Vz (apparent volume of distribution): 57.5 ± 34.6 liter/m^2
[3]; [12]
  CL (total body clearance): 33.1 liter/h/m^2
  Vz (apparent volume of distribution): 23.5 liter/m^2
[3]; [13]
  CL (total body clearance): 48.0 ± 5.1 liter/h/m^2
  Vz (apparent volume of distribution): 74.3 ± 71.7 liter/m^2
[3]; [14]
  CL (total body clearance): 27.8 ± 11.4 liter/h/m^2
  Vz (apparent volume of distribution): 45.5 ± 26.7 liter/m^2
[3]; [15]
  CL (total body clearance): 32.0 ± 13.1 liter/h/m^2
  Vz (apparent volume of distribution): 47.1 ± 30.6 liter/m^2
[3]; 48 mg/m2, t1/2,z (terminal phase half-life), Stratum II (EIACD), 48 mg/m^2 IV, week 1, 2 patients, mean ± SD
  half-life: 1.07 ± 0.9 h
[3]; 65 mg/m2, t1/2,z (terminal phase half-life), Stratum II (EIACD), 65 mg/m^2 IV, week 1, 6 patients, mean ± SD
  half-life: 1.13 ± 0.62 h
[4]
  increase of clearance upon repeated administration: more than 50%
[5]
  penetration into the CSF: does not penetrate the CSF
CYP3A4
  role of CYP3A4 in elimination of SU5416: major isozyme catalyzing the initial oxidation
[6]; intravenously twice weekly
  MTD in adults: 145 mg/m^2
[6]
  Dose-limiting toxicities in adults: headache, nausea, and vomiting

## Cc1cc(C(=O)O)[nH]c1C=C1C(=O)Nc2ccccc21 [SU6595]
[3]; [16]
  Relative extent of metabolism (%), AUC(0-t) metabolite/parent: SU6595: 57.4 ± 36.4%
[3]; [17]
  Relative extent of metabolism (%), AUC(0-t) metabolite/parent: SU6595: 72.9 ± 43.9%
[3]; [18]
  Relative extent of metabolism (%), AUC(0-t) metabolite/parent: SU6595: 37.4 ± 25.3%
[3]; [19]
  Relative extent of metabolism (%), AUC(0-t) metabolite/parent: SU6595: 72.4 ± 26.1%
[3]; [20]
  Relative extent of metabolism (%), AUC(0-t) metabolite/parent: SU6595: 50.1 ± 33.2%
[3]; [21]
  Relative extent of metabolism (%), AUC(0-t) metabolite/parent: SU6595: 72.8 ± 39.1%
[3]; [22]
  Relative extent of metabolism (%), AUC(0-t) metabolite/parent: SU6595: 55.2%
[3]; [23]
  Relative extent of metabolism (%), AUC(0-t) metabolite/parent: SU6595: 26.4 ± 1.1%
[3]; [24]
  Relative extent of metabolism (%), AUC(0-t) metabolite/parent: SU6595: 57.3 ± 20.4%
[3]; [25]
  Relative extent of metabolism (%), AUC(0-t) metabolite/parent: SU6595: 48.1 ± 21.3%

## Cc1cc(CO)[nH]c1/C=C1\C(=O)Nc2ccccc21 [SU9838]
[3]; [16]
  Relative extent of metabolism (%), AUC(0-t) metabolite/parent: SU9838: 3.95 ± 1.59%
[3]; [17]
  Relative extent of metabolism (%), AUC(0-t) metabolite/parent: SU9838: 4.41 ± 2.28%
[3]; [18]
  Relative extent of metabolism (%), AUC(0-t) metabolite/parent: SU9838: 3.98 ± 2.13%
[3]; [19]
  Relative extent of metabolism (%), AUC(0-t) metabolite/parent: SU9838: 5.24 ± 0.81%
[3]; [20]
  Relative extent of metabolism (%), AUC(0-t) metabolite/parent: SU9838: 3.96 ± 1.68%
[3]; [21]
  Relative extent of metabolism (%), AUC(0-t) metabolite/parent: SU9838: 4.59 ± 2.11%
[3]; [22]
  Relative extent of metabolism (%), AUC(0-t) metabolite/parent: SU9838: 2.44%
[3]; [23]
  Relative extent of metabolism (%), AUC(0-t) metabolite/parent: SU9838: 4.07 ± 1.37%
[3]; [24]
  Relative extent of metabolism (%), AUC(0-t) metabolite/parent: SU9838: 5.72 ± 3.41%
[3]; [25]
  Relative extent of metabolism (%), AUC(0-t) metabolite/parent: SU9838: 4.82 ± 2.69%

Source: publication PMC2775441 (Pediatric blood & cancer, 2009)
